Assay results reported in US12173018B2, “Penicillin-binding protein inhibitors” (priority 2018, dated 2024).
Values after ≈ are worked out from the molar mass of the structure shown. Like-named read-outs stand apart in the source and are kept apart here.

How the values were obtained:
[1] = tested on: E. coli ATCC 25922; assay: Broth microdilution MIC, E. coli ATCC 25922; format: cell-based; details: Escherichia coli
Method in brief: (§1)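 CLSI broth microdilution in cation-supplemented Mueller-Hinton broth; 2-fold compound dilutions inoculated at 5×10^5 CFU/mL from a 3-5 h log-phase culture. Plates incubated 16-20 hours at 37° C; MIC read visually as lowest concentration with no growth.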

[2] = tested on: E. coli AG100; assay: Broth microdilution MIC, E. coli AG100 (wild-type parent); format: cell-based; details: Escherichia coli; wild-type parent E. coli AG100, broth microdilution; read-out: MIC E. coli AG100
Method in brief: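 Broth microdilution in cation-supplemented Mueller-Hinton broth, 2-fold serial compound dilutions, inoculum 5×10^5 CFU/mL from 3-5 h log culture.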

[3] = tested on: E. coli 901C; assay: microbe, parasite or virus in culture; format: cell-based; details: Escherichia coli; hyper-permeable E. coli 901C, broth microdilution; read-out: MIC E. coli 901C
Method in brief: as §1

[4] = tested on: E. coli AG100A; assay: microbe, parasite or virus in culture; format: cell-based; details: Escherichia coli, read-out: MIC E. coli AG100A
Method in brief: as §1

[5] = tested on: K. pneumoniae UMM; assay: microbe, parasite or virus in culture; format: cell-based; details: Klebsiella pneumoniae; K. pneumoniae UMM producing SHV-5 and KPC-2; read-out: MIC K. pneumoniae UMM
Method in brief: as §1

[6] = tested on: N. gonorrhoeae ATCC 49226; assay: Liquid broth MIC, N. gonorrhoeae ATCC 49226; format: cell-based; details: Neisseria gonorrhoeae, ATCC49226; N. gonorrhoeae ATCC 49226, liquid broth; read-out: Minimum Inhibitory Concentration, N. gonorrhoeae ATCC 49226
Method: (§2) Additional antibacterial testing of the series was performed in wild-type reference strains of N. gonorrhoeae (ATCC 49226, FA1090, WHO F and FA19). Liquid broth-based assays were used for antibacterial testing of PBP inhibitors in Neisseria gonorrhoeae. Briefly, cryo-preserved bacterial cultures of clinical strains are streaked for isolation on GC Base agar (BD #228950 at 36 g/L autoclaved at 121° C. for 20 minutes to sterilize) with 1% Kellogg's supplement (40 g glucose, 0.5 g glutamine, 0.05 g ferric nitrate and 2 mg cocarboxylase per 100 mL deionized water filter sterilized through 0.2 μm syringe filters). Following incubation at 36° C. and 5% CO2 to allow growth of colonies, strains are aseptically sub-cultured from original agar plate onto 3 agar plates per strain 24 hours before inoculum preparation. 2-fold serial dilutions of test compounds are conducted in a 96 well plate with a final volume of 150 μL per well at 4/3-fold the final desired concentration. For preparation of assay inoculum, a direct suspension is prepared by aseptically swabbing all colonies from sub-cultured agar plates into culture tubes containing 2 mL of fresh GC broth with […]. After the dilution plates are set up, direct suspensions are then diluted in a cuvette containing GC broth (15 g proteose peptone 43, 1 g corn starch, 4 g dipotassium phosphate, 1 g monopotassium phosphate and 5 g sodium chloride per liter of deionized water are mixed on a stir plate for 20 minutes, pH adjusted to 7.2+/−0.2 pH units with 1 N HCl, centrifuged at 10,000×g for 20 minutes to pellet undissolved corn starch and then autoclaved at 121° C. for 20 minutes to sterilize) and the optical density is measured at 600 nm. Inocula are diluted such that 50 μL of this culture in […] results in a starting bacterial concentration of 5×10^5 CFU/mL when added to the dilution plates. The plates are incubated 40-42 hours at 36° C. and 5% CO2. The MIC is read visually as the lowest concentration well with no bacterial growth.

[7] = tested on: N. gonorrhoeae FA1090; assay: Liquid broth MIC, N. gonorrhoeae FA1090; format: cell-based; details: Neisseria gonorrhoeae; N. gonorrhoeae FA1090, liquid broth; read-out: Minimum Inhibitory Concentration, N. gonorrhoeae FA1090
Method: as §2

[8] = tested on: N. gonorrhoeae WHO F; assay: Liquid broth MIC, N. gonorrhoeae WHO F; format: cell-based; details: Neisseria gonorrhoeae; N. gonorrhoeae WHO F, liquid broth; read-out: Minimum Inhibitory Concentration, N. gonorrhoeae WHO F
Method: as §2

[9] = tested on: N. gonorrhoeae FA19; assay: Liquid broth MIC, N. gonorrhoeae FA19; format: cell-based; details: Neisseria gonorrhoeae; N. gonorrhoeae FA19, liquid broth; read-out: Minimum Inhibitory Concentration, N. gonorrhoeae FA19
Method: as §2

[10] = target: E. coli PBP3 (Escherichia coli (strain K12), UniProt P0AD68); assay: E. coli PBP3 Bocillin-FL fluorescence polarization competition binding assay
Method in brief: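 This was a fluorescence polarization competition with fluorescent penicillin Bocillin-FL (0.1 μM final), read at 490/520 nm for 60 min immediately after its addition. The buffer was Hepes pH 8.0 with 300 mM NaCl and 5% glycerol, containing 1.5 μM PBP and test inhibitor up to 1000 μM. Potency is expressed as EC50 for reducing probe binding.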

[11] = tested on: E. coli D22; assay: microbe, parasite or virus in culture; format: cell-based; details: Escherichia coli; hyper-permeable E. coli D22, broth microdilution; read-out: MIC E. coli D22
Method in brief: as §1

[12] = tested on: K. pneumoniae SI-117; assay: microbe, parasite or virus in culture; format: cell-based; details: Klebsiella pneumoniae, SI117, read-out: MIC K. pneumoniae SI-117
Method in brief: as §1

[13] = tested on: K. pneumoniae 848844; assay: microbe, parasite or virus in culture; format: cell-based, Klebsiella pneumoniae; details: Klebsiella pneumoniae; K. pneumoniae 848844 producing SHV-11 and KPC-2; read-out: MIC K. pneumoniae 848844
Method in brief: as §1

[14] = ATCC25922, E. coli ATCC 25922, broth microdilution, read-out: MIC E. coli 25922

E. coli PBP3, sequence (P0AD68 whole entry): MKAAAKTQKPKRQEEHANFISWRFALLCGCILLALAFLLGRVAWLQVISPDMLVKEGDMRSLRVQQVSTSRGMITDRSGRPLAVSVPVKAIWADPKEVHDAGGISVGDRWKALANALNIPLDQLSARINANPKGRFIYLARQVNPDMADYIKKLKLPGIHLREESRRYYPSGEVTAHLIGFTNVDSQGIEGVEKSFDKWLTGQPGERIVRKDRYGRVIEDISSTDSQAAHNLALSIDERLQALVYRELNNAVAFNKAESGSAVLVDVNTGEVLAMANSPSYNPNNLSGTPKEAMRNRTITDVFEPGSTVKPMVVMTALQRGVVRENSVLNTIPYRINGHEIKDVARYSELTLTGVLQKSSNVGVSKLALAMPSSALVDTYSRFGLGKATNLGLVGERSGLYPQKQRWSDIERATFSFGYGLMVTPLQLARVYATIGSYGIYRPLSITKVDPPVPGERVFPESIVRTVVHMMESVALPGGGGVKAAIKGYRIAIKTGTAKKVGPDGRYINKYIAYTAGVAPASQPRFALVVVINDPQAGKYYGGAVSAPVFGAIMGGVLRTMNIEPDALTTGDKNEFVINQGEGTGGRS

Structure (SMILES)	MIC [1, 14] [µg/mL]	MIC [2] [µg/mL]	MIC [3] [µg/mL]	MIC [4] [µg/mL]	MIC [5] [µg/mL]	MIC [6] [µg/mL]	MIC [7] [µg/mL]	MIC [8] [µg/mL]	MIC [9] [µg/mL]	EC50 [10] [µM]	MIC [11] [µg/mL]	MIC [12] [µg/mL]	MIC [13] [µg/mL]	EC50 ([10]; fluorescence polarization competition binding with Bocillin-FL, read-out: E. coli K12 PBP3 Potency) [µM]	MIC ([1]; ATCC25922, read-out: MIC E. coli 25922) [µg/mL]
CCN1CCN(C(=O)N[C@@H](C(=O)N[C@H]2Cc3cccc(C(=O)O)c3OB2O)c2ccc(O)c(O)c2)C(=O)C1=O [Example 39, (R)-3-((R)-2-(3,4-dihydroxyphenyl)-2-(4-ethyl-2,3-dioxopiperazine-1-carboxamido)acetamido)-2-hydroxy-3,4-dihydro-2H-benzo[e][1,2]oxaborinine-8-carboxylic acid]	8 to 16	8 to 16	0.5 to 1	2 to 4	8 to 16	1 to 2 (≈ 1.85 to 3.7 µM)	< 0.125	0.25 to 0.5 (≈ 0.463 to 0.925 µM)	1 to 2 (≈ 1.85 to 3.7 µM)						
CCN1CCN(C(=O)NC(C(=O)N[C@H]2Cc3cccc(C(=O)O)c3OB2O)c2ccsc2)C(=O)C1=O (stereo partly drawn) [Example 137, (3R)-3-(2-(4-ethyl-2,3-dioxopiperazine-1-carboxamido)-2-(thiophen-3-yl)acetamido)-2-hydroxy-3,4-dihydro-2H-benzo[e][1,2]oxaborinine-8-carboxylic acid]						1 to 2 (≈ 1.94 to 3.89 µM)	< 0.125	< 0.125	4 to 8 (≈ 7.78 to 15.6 µM)	30 to 500					
CCN1CCN(C(=O)NC(C(=O)N[C@H]2Cc3ccc(F)c(C(=O)O)c3OB2O)c2cnc(N)s2)C(=O)C1=O (stereo partly drawn) [Example 152, (3R)-3-(2-(2-aminothiazol-5-yl)-2-(4-ethyl-2,3-dioxopiperazine-1-carboxamido)acetamido)-7-fluoro-2-hydroxy-3,4-dihydro-2H-benzo[e][1,2]oxaborinine-8-carboxylic acid]						1 to 2 (≈ 1.82 to 3.65 µM)	0.25 to 0.5 (≈ 0.456 to 0.912 µM)	0.25 to 0.5 (≈ 0.456 to 0.912 µM)	1 to 2 (≈ 1.82 to 3.65 µM)	30 to 500					
Nc1ncc(C(NC(=O)N2CCN(CCF)C(=O)C2=O)C(=O)N[C@H]2Cc3ccc(F)c(C(=O)O)c3OB2O)s1 (stereo partly drawn) [Example 153, (3R)-3-(2-(2-aminothiazol-5-yl)-2-(4-(2-fluoroethyl)-2,3-dioxopiperazine-1-carboxamido)acetamido)-7-fluoro-2-hydroxy-3,4-dihydro-2H-benzo[e][1,2]oxaborinine-8-carboxylic acid]						1 to 2 (≈ 1.77 to 3.53 µM)	0.25 to 0.5 (≈ 0.441 to 0.883 µM)	0.25 to 0.5 (≈ 0.441 to 0.883 µM)	1 to 2 (≈ 1.77 to 3.53 µM)	30 to 500					
CCN1CCN(C(=O)N[C@H](C(=O)N[C@H]2Cc3ccc(F)c(C(=O)O)c3OB2O)c2ccc(O)c(F)c2)C(=O)C1=O [Example 160, (R)-3-((S)-2-(4-ethyl-2,3-dioxopiperazine-1-carboxamido)-2-(3-fluoro-4-hydroxyphenyl)acetamido)-7-fluoro-2-hydroxy-3,4-dihydro-2H-benzo[e][1,2]oxaborinine-8-carboxylic acid]	> 128	> 128	2 to 4	> 128	> 128	16 to 32 (≈ 28.6 to 57.1 µM)	0.25 to 0.5 (≈ 0.446 to 0.892 µM)	0.25 to 0.5 (≈ 0.446 to 0.892 µM)	16 to 32 (≈ 28.6 to 57.1 µM)	30 to 500	32 to 64	> 128	> 128		
O=C(O)c1cccc2c1OB(O)[C@@H](NC(=O)C(NC(=O)N1CCN(CCF)C(=O)C1=O)c1ncc(O)cc1F)C2 (stereo partly drawn) [Example 179, (3R)-3-(2-(3-fluoro-5-hydroxypyridin-2-yl)-2-(4-(2-fluoroethyl)-2,3-dioxopiperazine-1-carboxamido)acetamido)-2-hydroxy-3,4-dihydro-2H-benzo[e][1,2]oxaborinine-8-carboxylic acid]	8 to 16	8 to 16	< 0.25	0.5 to 1	2 to 4	0.25 to 0.5 (≈ 0.445 to 0.891 µM)	< 0.125	< 0.125	4 to 8 (≈ 7.13 to 14.3 µM)		0.5 to 1	8 to 16	32 to 64	< 30	
CCN1CCN(C(=O)NC(C(=O)N[C@H]2Cc3cccc(C(=O)O)c3OB2O)c2ccc(C(N)=O)cc2)C(=O)C1=O (stereo partly drawn) [Example 186, (3R)-3-(2-(4-carbamoylphenyl)-2-(4-ethyl-2,3-dioxopiperazine-1-carboxamido)acetamido)-2-hydroxy-3,4-dihydro-2H-benzo[e][1,2]oxaborinine-8-carboxylic acid]	32 to 64	8 to 16	< 0.25	2 to 4	32 to 64	1 to 2 (≈ 1.81 to 3.63 µM)	< 0.125	< 0.125	1 to 2 (≈ 1.81 to 3.63 µM)	30 to 500	0.5 to 1	> 128	> 128		
CCN1CCN(C(=O)NC(C(=O)N[C@H]2Cc3cccc(C(=O)O)c3OB2O)c2ncc(OC(C)=O)cc2F)C(=O)C1=O (stereo partly drawn) [Example 207, (3R)-3-(2-(5-acetoxy-3-fluoropyridin-2-yl)-2-(4-ethyl-2,3-dioxopiperazine-1-carboxamido)acetamido)-2-hydroxy-3,4-dihydro-2H-benzo[e][1,2]oxaborinine-8-carboxylic acid]		8 to 16	< 0.25	0.5 to 1	8 to 16	0.25 to 0.5 (≈ 0.427 to 0.854 µM)	< 0.125	< 0.125	1 to 2 (≈ 1.71 to 3.42 µM)		0.5 to 1	32 to 64	32 to 64		8 to 16
CCN1CCN(C(=O)NC(C(=O)N[C@H]2Cc3ccc(Cl)c(C(=O)O)c3OB2O)c2csc(N)n2)C(=O)C1=O (stereo partly drawn) [Example 215, (3R)-3-(2-(2-aminothiazol-4-yl)-2-(4-ethyl-2,3-dioxopiperazine-1-carboxamido)acetamido)-7-chloro-2-hydroxy-3,4-dihydro-2H-benzo[e][1,2]oxaborinine-8-carboxylic acid]						4 to 8 (≈ 7.08 to 14.2 µM)	1 to 2 (≈ 1.77 to 3.54 µM)	0.25 to 0.5 (≈ 0.443 to 0.885 µM)	4 to 8 (≈ 7.08 to 14.2 µM)	30 to 500					
